Assay results as given in patent US4077952A, “Somatostatin analogs” (American Home Products Corporation, priority 1977, dated 1978).
Positions of bridges follow the written chain, without caps; N, C: chain ends. Non-standard residues stand in square brackets, D forms with d. Residues, ends and D or L forms follow the SMILES beside them.

Assays:
Assay type in all cases: in vivo
Settings in all cases: albino male rats, blood 15 min after compound, 5 min after arginine
insulin (INS) = assay: Suppression of insulin in arginine-stimulated, nembutal-anesthetized rats
Experimental: (§1) Albino male rats are arranged in two groups (nine rats/group) and injected i.p. with nembutal at 50 mg/kg. Fifteen minutes after the nembutal injection they are injected s.c. according to group with test compound, or physiological saline. Ten minutes later 0.5 ml. of arginine (300 mg/ml. pH 7.2) is injected into the heart. The rats are decapitated five minutes after receiving the arginine, and the blood is collected into Trasylol-EDTA. Appropriate aliquots are then assayed for growth hormone (GH), glucagon (GLUN), and insulin (INS). […] Comparisons between control and experimental values are statistically evaluated by the analysis of variants method and statistical significance (p) at 0.05 or lower is used as the index of activity.

growth hormone (GH) = assay: Suppression of growth hormone in arginine-stimulated, nembutal-anesthetized rats
Experimental: as §1

glucagon (GLUN) = assay: Suppression of glucagon in arginine-stimulated, nembutal-anesthetized rats
Experimental: as §1

C[C@@H](O)[C@@H]1NC(=O)[C@H](Cc2ccccc2)NC(=O)[C@H]([C@@H](C)O)NC(=O)[C@H](CCCCN)NC(=O)[C@@H](Cc2c[nH]c3ccccc23)NC(=O)[C@H](Cc2ccccc2)NC(=O)[C@H](Cc2ccccc2)NC(=O)[C@H](Cc2c[nH]cn2)NC(=O)[C@H](CCCNC(=N)N)NC(=O)[C@@H](N)CSSC[C@@H](C(=O)O)NC(=O)[C@H](CO)NC1=O [Example 2, L-Cysteinyl-L-Arginyl-L-Histidyl-L-Phenylalanyl-L-Phenylalanyl-D-Tryptophyl-L-Lysyl-L-Threonyl-L-Phenylalanyl-L-Threonyl-L-Seryl-L-Cysteine Cyclic (1-12) Disulfide] (H-CRHFF[dW]KTFTSC-OH; disulfide 1-12)
INS plasma level (insulin (INS); Experiment 1, 100 μg/kg s.c., saline control 177 ± 19): 52 ± 16 μU/ml
INS plasma level (insulin (INS); Experiment 2, 10 μg/kg s.c., saline control 262 ± 26): 238 ± 72 μU/ml
GH plasma level (growth hormone (GH); Experiment 1, 100 μg/kg s.c., saline control 257 ± 49): 61 ng/mL
GH plasma level (growth hormone (GH); Experiment 2, 10 μg/kg s.c., saline control 131 ± 43): 71 ± 21 ng/mL
GLUN plasma level (glucagon (GLUN); Experiment 1, 100 μg/kg s.c., saline control 61 ± 9): 0 ± 0 pg/mL
GLUN plasma level (glucagon (GLUN); Experiment 2, 10 μg/kg s.c., saline control 42 ± 6): 4 ± 3 pg/mL
